Laboratory results taken from patent US6380193B1, “Fused tricyclic compounds, methods and compositions for inhibiting PARP activity” (Guilford Pharmaceuticals Inc., priority 1998, dated 2002).

Legend:
[1] = tested on: C57/BL male mice; assay: Septic shock assay (LPS plus galactosamine challenge); format: in vivo, mouse; conditions: 60, 20, 6 and 2 mg/kg daily IP for three days, first dose 30 minutes after challenge
Description: Groups of 10 C57/BL male mice weighing 18 to 20 g were administered a test compound, 1-carboxynaphthalene-1-carboxamide at the doses of 60, 20, 6 and 2 mg/kg, daily, by intraperitoneal (IP) injection for three consecutive days. Each animal was first challenged with lipopolysaccharide (LPS, from E. Coli, LD100 of 20 mg/animal IV) plus galactosamine (20 mg/animal IV). The first dose of test compound in a suitable vehicle was given 30 minutes after challenge, and the second and third doses were given 24 hours later on day 2 and day 3 respectively, with only the surviving animals receiving the second or third dose of the test compound. Mortality was recorded every 12 hours after challenge for the three-day testing period. 1-Carboxy-naphthalene-1-carboxamide provided a protection against mortality from septic shock of about 40%.

[2] = tested on: cell viability, glucose metabolism, and DNA synthesis; conditions: cited from earlier work
[3] = tested on: human fibroblast cells lines (W138 or BJ cells); assay: Proliferative capacity and lifespan of cells; format: cell-based
Description: At the time of subdivision, the media is aspirated, and the cells rinsed with phosphate buffer saline (PBS) and then trypsinized. The cells are counted with a Coulter counter and plated at a density of 10^5 cells per cm^2 in 6-well tissue culture plates in DMEM/199 medium supplemented with 10% bovine calf serum and varying amounts ([…]: from a 100× stock solution in DMEM/M199 medium) of a PARP inhibitor of Formula I as disclosed herein. This process is repeated every 7 days until the cell appear to stop dividing. The untreated (control) cells reach senescence and stop dividing after about 40 days in culture. […] The cells treated with 1 mM 3-AB will still divide after 60 days in culture.

[4] = tested on: colitis in rats; conditions: rat, in vivo; cited from earlier work
[5] = tested on: focal cerebral ischemia in male Long-Evans rats; assay: Focal cerebral ischemia in rats (right distal MCA cauterization with bilateral temporary CCA occlusion), infarct by TTC staining; format: in vivo, rat
Description: Focal cerebral ischemia was produced by cauterization of the right distal MCA (middle cerebral artery) with bilateral temporary common carotid artery occlusion in male Long-Evans rats for 90 minutes. All procedures performed on the animals were approved by the University Institutional Animal Care and Use Committee of the University of Pennsylvania. A total of 42 rats (weights: 230-340 g) obtained from Charles River were used in this study. The animals fasted overnight with free access to water prior to the surgical procedure.
Two hours prior to MCA occlusion, varying amounts (control, n=14; 5 mg/kg, n=7; 10 mg/kg, n=7; 20 mg/kg, n=7; and 40 mg/kg, n=7) of the compound, 3,4-dihydro-5-[4-(1-piperidinyl)-butoxy]-1(2H)-isoquinolinone (“DPQ”) were dissolved in dimethyl sulfoxide (DMSO) using a sonicator. A volume of 1.28 ml/kg of the resulting solution was injected intraperitoneally into […].
Focal cerebral ischemia was produced by cauterization of the distal portion of the right MCA with bilateral temporary common carotid artery (CCA) occlusion by the procedure of Chen et al., “A Model of Focal Ischemic Stroke in the Rat: Reproducible Extensive Cortical Infarction”, Stroke 17:738-43 (1986) and/or Liu et al., “Polyethylene Glycol-conjugated Superoxide Dismutase and Catalase Reduce Ischemic Brain Injury”, Am. J. Physiol. 256:H589-93 (1989), both of which are hereby incorporated by reference. […]
Two hours after MCA occlusion, the animals were given the same doses of the PARP inhibitor as in the pre-treatment. […] To avoid artifacts due to edema, the damaged area was calculated by subtracting the area of the normal tissue in the hemisphere ipsilateral to the stroke from the area of the hemisphere contralateral to the stroke, by the method of Swanson et al., “A Semiautomated Method for Measuring Brain Infarct Volume”, J. Cereb. […] The total volume of infarction was calculated by summation of the damaged volume of the brain slices.

[6] = tested on: endotoxic shock; conditions: in vivo; cited from earlier work

SMILES: NC(=O)C1(C(=O)O)CC=Cc2ccccc21 (centres unmarked) [1-Carboxy-naphthalene-1-carboxamide, 1-carboxynaphthalene-1-carboxamide]
- protection against mortality from septic shock [1]: about 40%

SMILES: NC(=O)c1cccc(N)c1 [3-aminobenzamide]
- additional metabolic effects [2]: shown to affect cell viability, glucose metabolism, and DNA synthesis
- lifespan and proliferative capacity of the cells ([3]; 10 uM): little or no effect
- lifespan and proliferative capacity of the cells ([3]; 100 uM): lengthen the lifespan of the cells
- lifespan and proliferative capacity of the cells ([3]; 1 mM): dramatically increases the lifespan and proliferative capacity of the cells
- inflammatory response, morphology and energetic status of the distal colon [4]: reduced the inflammatory response and restored the morphology and the energetic status of the distal colon

SMILES: O=C1NCCc2c(OCCCCN3CCCCC3)cccc21 [DPQ, 3,4-dihydro-5-[4-(1-piperidinyl)-butoxy]-1(2H)-isoquinolinone]
- cross-sectional infarct area curve (FIG. 1) ([5]; 5 mg/kg): approximately halfway between the control and the 10 mg/kg curves
- cross-sectional infarct area curve (FIG. 1) ([5]; 20 mg/kg): approximately halfway between the control and the 10 mg/kg curves
- cross-sectional infarct area curve (FIG. 1) ([5]; 40 mg/kg): close to the control

SMILES: NC(=O)c1ccccc1 [benzamide]
- additional metabolic effects [2]: shown to affect cell viability, glucose metabolism, and DNA synthesis

SMILES: NC(=O)c1cccnc1 [nicotinamide]
- delayed, NO-mediated vascular failure [6]: protects against delayed, NO-mediated vascular failure in endotoxic shock
